Among the test systems are ACHN renal; SN12C renal; SNB-75 CNS; NCI-H460 lung; OVCAR-3 ovarian; SW-620 colon; DU-145 prostate; MALME-3M melanoma; OVCAR-8 ovarian; HCT-116 colon.
Common to all, as to assay: DTP human tumour cell line panel, 48 h

The structures appear in SMILES notation.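 Growth conditions: 96-well plates. Treatment: test compound, 48 hours, 5 concentrations. Analysis: linear interpolation between bracketing concentrations; unreached endpoints set to highest concentration. At the GI50, growth is halved. The concentration for full growth arrest is given as TGI.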

As to `CC(C)C[C@H](NC(=O)Cn1ccc(NCc2ccccc2)cc1=O)B(O)O`, the GI50 with ACHN renal was 0.427 µM; in the test on SN12C renal it was 3.71 µM; in the test with SNB-75 CNS, 2.33 µM; with NCI-H460 lung it was 6.19 µM; in the test on OVCAR-3 ovarian, 0.537 µM; with SW-620 colon, 0.557 µM. Moreover, the GI50 is 5.48 µM in the test on DU-145 prostate, 2.22 µM with MALME-3M melanoma, 4.69 µM in the test with OVCAR-8 ovarian and 0.576 µM with HCT-116 colon. Further, the total growth inhibition concentration (TGI) is greater than 100 µM in the test on ACHN renal; 54.8 µM in the test on SN12C renal; 9.72 µM with SNB-75 CNS; 37.6 µM with NCI-H460 lung; 3.12 µM in the test with OVCAR-3 ovarian; greater than 28.6 µM in the test on SW-620 colon. Moreover, the TGI with DU-145 prostate was greater than 100 µM; in the test on MALME-3M melanoma it was greater than 30 µM; with OVCAR-8 ovarian, greater than 100 µM; with HCT-116 colon it was 3.66 µM.

A word on the GI50: it is the concentration giving 50% growth inhibition. As a reminder, the TGI is the concentration at which net growth stops.

These data come from PubChem BioAssay (NCI).
